Assay results: patent US20070128727A1, “Methods for differentiation of embryonic stem cells” (priority 2005, published 2007)

Key:
Type in all cases: cell-based, mouse
[1] = tested on: fully differentiated and induced cells (adipocytes from MESC); assay: Hormone induced lipolysis (glycerol release into medium); details: 4 hr in glucose-free DMEM; isoproterenol increasing concentrations; dibutyryl-cAMP 10^-3 M; forskolin 4×10^-5 M
Method: FIG. 4. Hormone induced lipolysis. Fully differentiated and induced cells were treated with increasing concentrations of isoproterenol in glucose-free DMEM containing 30 mg/ml of fatty acid free albumin and adenosine deaminase (1 U/ml) for 4 hr. The control samples were incubated with 10^−5 M N-(2-phenylisopropyl)-adenosine to replace the endogenous adenosine. The amount of glycerol in the medium was measured using a calorimetric kit. Differentiated and induced cells incubated with isoproterenol in 35 mm wells. B. Differentiated cells with or without induction cultures were incubated with 10^−3 M dibutyryl-cAMP or 4×10^−5 M forskolin in 60 mm diameter culture plates.

MESC = assay: ATRA effects on growth of MESC (Alamar blue cell proliferation); details: ATRA 10^-6 M for three days, vs 0.1% DMSO vehicle, 500 cells/well
Method: (§1) Mouse embryonic stem (ES) cells were used as the source of embryoid bodies (EBs). E14Tg2A cells were trypsinized and made into suspension in Glasgow Minimum essential medium containing 10% fetal bovine serum (growth medium). Cells were counted under a microscope using a haemocytometer, and were diluted to a concentration on 10^5 cells/mi. During cell passages, 1000 U/ml of leukemia inhibitory factor (LIF) was added to prevent differentiation.
FIG. 1. ATRA effects on growth of MESC. Cells were plated at 500/well in a 96-well culture plate. Starting on day 1, they were treated with ATRA (10^−6 M) for three days with replacement of fresh media each day. Control samples were treated with 0.1% DMSO (vehicle). At each indicated day, Alamar blue (10 μl/0.1 ml), an indicator for cell proliferation detection, was added to each well and the fluorescence generated was read after 4 hours.

[2] = tested on: embryoid bodies from E14Tg2A embryonic stem cells; assay: Differentiation of adipocytes from embryoid bodies (oil-red-O staining, morphology); details: ATRA treated vs vehicle treated cultures, same differentiation process
Method: as §1
To make EBs, cell suspensions after trypsinization were made into hanging droplets (20 μl) onto the cover of a bacteriological petri dish. The bottom of the dish was filled with PBS.
20 μl droplets of cells in suspension were pipetted onto the cover of a 100 mm bacteriological petri dish. […]
Two days afterwards, the droplets containing EBs were collected by adding medium to the cover and equally distributed onto 2 gelatinized (precoated with 0.1% gelatin) 100 mm petri dishes. […] After treating the cells for 8 days, cells were removed from the dish, counted with a hemocytometer and plated onto gelatinized 6-well culture plates at 10^4/cm^2. […]
ATRA treated cultures and vehicle treated control cultures underwent the same differentiation process as described in the Methods. […] The relative mass of specific RNA was calculated by the comparative cycle of threshold detection method according to the manufacturer's instruction. […]

Differentiated MESC = assay: Gene expression profile by Taqman real time PCR in differentiated MESC
Method: Two days afterwards, the droplets containing EBs were collected by adding medium to the cover and equally distributed onto 2 gelatinized (precoated with 0.1% gelatin) 100 mm petri dishes. The attached EBs were treated with 10^−6 M ATRA (all-trans retinoic acid) for 3 days to initiate differentiation. Medium was then changed into growth medium with 10^−7 M insulin and 2×10^−9 M of triiodothyronine (T3) (induction medium) to continue adipocyte differentiation. Medium was changed every two days. At day 10, further stimulation of induction was made by the addition of an induction cocktail [0.5 mM isobutylmethylxanthine (IBMX), 0.1 μM dexamethasone (DEX) and 1 μM of insulin]. After treating the cells for 8 days, cells were removed from the dish, counted with a hemocytometer and plated onto gelatinized 6-well culture plates at 10^4/cm^2. Cells with minute lipid droplets (adipocytes) appeared in two days. The number of the adipocytes and the size of droplets increased over time and reached a plateau at day 10.
ATRA treated cultures and vehicle treated control cultures underwent the same differentiation process as described in the Methods. […] Total RNA was extracted, and reverse-transcribed. The relative mass of specific RNA was calculated by the comparative cycle of threshold detection method according to the manufacturer's instruction. Two independent experiments were performed using different RNA preparations from the cultures; each run of PCR was conducted in triplicate. The expression of adipocyte markers was increased while some of the osteoblast markers were decreased.

[3] = tested on: embryoid body cultures from E14Tg2A cells; assay: Osteoblast differentiation, real time RT-PCR of osteoblast marker mRNA; details: day 31 cultures
Method: Two days afterwards, the droplets containing EBs were collected by adding medium to the cover and equally distributed onto 2 gelatinized (precoated with 0.1% gelatin) 100 mm petri dishes. Without treating with ATRA, the attached EBs were incubated in the induction medium containing 10^−7 M insulin and 2×10^−9 M T3 for 5 days.
After that, 0.3 mM of ascorbic acid phosphate (magnesium salt, Waco Chemicals, Dallas, Tex.) and 10 mM of β-glycerophosphate (Sigma-Aldrich Chemicals, St. Louis, Mo.) were added to the induction medium for an additional 9 days. At day 14, cultures were trypsinized to remove the cells and plated on to gelatin-coated 6-well culture plates at a density of 10^4 cells/cm^2. Three days after, at day 17, DEX at 10^−8 M was added to some of the wells to further induce osteoblast differentiation. Medium was replaced every 2 days throughout the culture period.
The cultures were terminated 2 weeks after at day 31 and stained for alkaline phosphatase (ALP) activity using a kit from Sigma following manufacturer's procedure (procedure No. 85). In this procedure, cells containing ALP activity, an osteoblast maker, appear in blue color. […]

CCCC(=O)Nc1ncnc2c1ncn2[C@@H]1O[C@@H]2COP(=O)(O)O[C@H]2[C@H]1OC(=O)CCC [dibutyryl-cAMP]
glycerol release (lipolysis) [1]: dose-dependent increase of glycerol release

CC1=C(/C=C/C(C)=C/C=C/C(C)=C/C(=O)O)C(C)(C)CCC1 [ATRA, all-trans retinoic acid]
cell number (Alamar blue fluorescence) (MESC): significant lowering of the cell number was only seen at day 3
formation of adipocytes at end of culture [2]: formed numerous fully differentiated adipocytes
ALBP expression, Fold Change (ATRA/Control) (Differentiated MESC; adipocyte marker): +53.2 ± 0.09 fold
HSL expression, Fold Change (ATRA/Control) (Differentiated MESC; adipocyte marker): +2.39 ± 0.17 fold
PPAR-γ expression, Fold Change (ATRA/Control) (Differentiated MESC; adipocyte marker): +1.72 ± 0.42 fold
ALP expression, Fold Change (ATRA/Control) (Differentiated MESC; osteoblast marker): −2.54 ± 0.03 fold
Collagen type 1α expression, Fold Change (ATRA/Control) (Differentiated MESC; osteoblast marker): +6.27 ± 0.26 fold
Osteocalcin expression, Fold Change (ATRA/Control) (Differentiated MESC; osteoblast marker): −5.28 ± 0.05 fold
Osteonectin expression, Fold Change (ATRA/Control) (Differentiated MESC; osteoblast marker): +2.02 ± 0.25 fold

CC(C)NCC(O)c1ccc(O)c(O)c1 (stereo not shown) [isoproterenol]
glycerol release (lipolysis) [1]: dose-dependent increase of glycerol release

C[C@@H]1C[C@H]2[C@@H]3CCC4=CC(=O)C=C[C@]4(C)[C@@]3(F)[C@@H](O)C[C@]2(C)[C@@]1(O)C(=O)CO [DEX, dexamethasone]
increase in expression of ALP mRNA [3]: ~2 fold
increase in expression of osteocalcin mRNA [3]: 8 fold
